In patent US20150328157A1, “APPLICATION OF SILICON DIOXIDE AEROGEL AS NANO-DRUG CARRYING SYSTEM IN PHARMACY” (GRADUATE SCHOOL AT SHENZHEN, TSINGHUA UNIVERSITY, priority 2012, published 2015) one finds AUC data, which are given here for one compound.

A short description of this series: Bioavailability of nanosized paclitaxel oral dosage form in rat bodies (plasma paclitaxel by HPLC). In kind it is in vivo, SD rats. Conditions: male, SD, one-time intragastric administration 40 mg/kg.

Protocol: Chromatographic conditions: Elite SinoChrom 300A ODS-AP 5 nm 4.6×250 mm Mobile phase: methanol:water:acetonitrile=23:41:36; flow rate: 1.0 ml/min; detection wavelength: 227 nm; and sample size: 20 μl.
Preparation of an internal standard solution: weighing about 10 mg of a diazepam control product, precisely weighing, putting into a 100 ml measuring flask, dissolving with methanol, diluting to the scale and shaking up to obtain an internal standard stock solution with the concentration of 100 μg/ml. An appropriate amount of the stock solution was precisely weighed, diluted with methanol to prepare 10 μg/ml of internal standard control product solution and preserved in the refrigerator at 4° C. for later use.
100 ul of plasma sample was taken and put into an EP tube, 5 μl (10 μg/ml) and 40 μl of NaHCO3(1 mol/L) was added, whirling was performed for 1 min, 1 ml of an extraction solvent, namely ethyl ether, was added, whirling was performed for 2 min, centrifugation was performed at 3500 r/min for 10 min, supernatant fluid was taken and blow-dried under air flow of 40° C., the residue was dissolved in 40 μl of mobile phase, whirling was performed for 1 min, centrifugation was performed at 3500 r/min for 10 min, and then 20 μl of supernatant fluid was taken for sample injection and analysis. […]

What is called AUC is the area under the concentration-time curve, a measure of exposure. Read a high AUC as more exposure. Consider `CC(=O)O[C@H]1C(=O)[C@@]2(C)[C@H]([C@H](OC(=O)c3ccccc3)[C@]3(O)C[C@H](OC(=O)[C@H](O)[C@@H](NC(=O)c4ccccc4)c4ccccc4)C(C)=C1C3(C)C)[C@]1(OC(C)=O)CO[C@@H]1C[C@@H]2O` [paclitaxel], for which the AUC came to 4890 ng·h/mL.
